Experimental findings from US20040127413A1, “Enteric keto acid and amino acid salts and their use for preparing medicines” (priority 2001, published 2004) are described below.

For the test, the system named is Male Sprague-Dawley rats. The test is described as follows: Colic distension model (visceral pain model in the rat), abdominal cramps counted.

Marks after values point to notes of the source that are not given here.

Take `CCC(=O)C(=O)O.NC(N)=NCCC[C@H](N)C(=O)O` [Arginine alpha-ketobutyrate, arginine alpha-ketobutyrate]: the “Number of abdominal cramps, Average” value runs as follows: (10 mg/kg p.o. pH 1) 15; (10 mg/kg p.o. pH 6) 9*. In addition, the “Activity in the colon distension model (in words)” value by setting is: (p.o. at pH 1) “inactive”; (p.o. at pH 6 (neutral)) “active”.
